Assay results reported in paper PMC11846984 (Nature Communications, 2025).

Biological target: T1, GPX4 (Mus musculus, UniProt O70325)
T1 sequence (O70325 28-197): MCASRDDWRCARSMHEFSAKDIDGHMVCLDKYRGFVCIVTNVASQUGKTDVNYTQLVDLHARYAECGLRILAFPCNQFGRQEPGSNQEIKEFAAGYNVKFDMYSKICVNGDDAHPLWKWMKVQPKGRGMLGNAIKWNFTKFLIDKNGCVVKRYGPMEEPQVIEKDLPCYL
Assay: cellular thermal shift assay
Type: cell-based

## COc1ccc(N(C(=O)CCl)C(C(=O)NCCc2ccccc2)c2cccs2)cc1Cl (stereo not shown) [ML162]
  cellular thermal shift assay (CETSA): Both the GPX4-targeting ligand ML162 and ML-NR were found to enhance the thermal stability of the GPX4 protein
